Laboratory results published in patent US11116778B2, “Prodrugs of ALOX-15 inhibitors and methods of using the same” (EMPIRICO INC., priority 2019, dated 2021).
In brackets after ≈: the same amount, converted by molar mass. Read-outs that look alike come from different tables or passages of the source.

Assays:
[1] = Solubility assessment in water; assay type: physicochemical; settings: water; 0.4 μg/ml at molecular weight 308; read-out: solubility, concentration
Procedure: Water was added slowly to 4.7 mg of compound 5 until 4.7 ml of water was added at which point the phosphate fully dissolved. The pH of the solution was estimated using litmus paper and estimated to be <3. Without a counterion, the molecular weight of the phosphate is 418 m. Therefore, at 1 mg/ml, the concentration is 2.4 mM.
For comparison, compound 3 is soluble to 0.4 μg/ml (Han et al FASEB J. 2017 31(2):491-504), which at a molecular weight of 308 is 1.3 μM.
Compound 5 was suspended in water (at weight to give a final concentration of 10 mM) and then 2 eq NaHCO3 was added.

[2] = Levels of compound 3 and compound 5 in rabbit nasal lavage and serum after nasal administration of compound 5; assay type: in vivo
Procedure: Six (6) female NZW rabbits were employed in this study. Rabbits were obtained from Covance (Denver Pa.). Rabbits were between approximately 10 and 12 months of age at the time of study start. At time point 0, all animals received 50 μL of solution containing rabbit IL4 (RND Systems/Biotechne) and human IL13 (PreproTech) at a concentration of 0.25 mg/mL each in 0.5×PBS containing 12.5 mg/mL BSA per nostril. This was administered intranasally via a venous catheter attached to a micropipette. The animal was positioned in a supine manner and the venous catheter inserted into the nostril. The volume was introduced into the nasal cavity and the same procedure was repeated with the other nostril.
At the 2, 4, and 6 hour time points, animals in Group 1 (n=3) received 0.2 mL of vehicle (0.9% saline) per nostril and the animals in Group 2 (n=3) received 0.2 mL of compound 5 (10 mM) in vehicle per nostril. The dosing of vehicle and compound 5 proceed as follows: The animal was positioned in a supine manner in a restraint bag and a mucosal atomization device (MAD) attached to the pre-filled tuberculin syringe was inserted into the nostril and introduced into the nasal cavity. The same procedure was repeated with the other nostril.
At the 8 hour time point, all the nostrils of all animals were lavaged with 1 mL of 0.9% saline per nostril and the resulting fluid collected. Intranasal lavages were performed as follows: The animals were held sternally in a restraint bag with the head over the edge of the table and the rear of the animal elevated higher than the head. A flexible venous catheter was inserted in the nostril until resistance was felt. The 1 mL of saline was introduced through the catheter into the nasal cavity. The nasal lavage returned from the nostril was collected via a funnel into a conical tube and the approximate volume recorded. This procedure was repeated for the other nostril. The lavage was stored at approximately −70° C. until analysis. Following (<10 minutes) the 8 hour time point lavage, blood was collected from all animals, processed to serum, and frozen at approximately −70° C. until analysis.
Nasal lavage and serum samples were analyzed for the levels of compound 3 and compound 5. Frozen tissue samples were weighed (20-120 mg) and placed into 2 mL CK14 homogenizing tubes (Bertin) and 500 μL of methanol containing 1 mM butylated hydroxy toluene (BHT) and 1 mM tris(2-carboxyethyl)phosphine (TCEP) was added. The tubes were placed in a Precellys 24 tissue homogenizer (Bertin) and run at 6000 rpm six times for 20 seconds with a 10 second pause between cycles. The tubes containing the homogenized tissue were then placed in a microfuge and centrifuged for 5′ at 14,000 rpm to pellet any insoluble material. Compound 3 was quantified using LC-MS/MS (QTrap5500, Applied Biosystems). Q1/Q3 Masses: 306.00/135.00 using a deschloro derivative of compound 3 (lacking chlorine at 4 position of pyrazole ring) as an internal standard. The Q1/Q3 Masses are 272.00/101.00 Da for the internal standard. Compound 3 was extracted using liquid/liquid extraction with methanol as a diluent. […] Compound 5 was quantified using LC-MS/MS (QTrap5500, Applied Biosystems). […] Compound 5 was detected in the lavage samples from Group 2 animals (rabbit 1, rabbit 2, rabbit 3) and ranged in average concentration from 0.016 uM-0.35 uM. […]

[3] = Han et al FASEB J. 2017; cited from earlier work

For `O=C(Nc1ccc(F)cc1Cl)c1n[nH]c(Cl)c1Cl` [compound 3, 4,5-dichloro-N-(2-chloro-4-fluorophenyl)-1H-pyrazole-3-carboxamide], the solubility [1] was 1.3 µM (≈ 0.401 µg/mL), the concentration at 8 h ([2]; female, NZW, rabbit, nasal lavage, other: intranasal (mucosal atomization device), rabbits dosed with compound 5, 0.2 mL of 10 mM per nostril at 2, 4, 6 hours, lavage at 8 hours, range over 3 rabbits, read-out: average concentration of compound 3 in nasal lavage (FIG. 8)) was 890 to 3100 nM and the “level in serum samples” value ([2]; rabbits, intranasal compound 5 10 mM, blood after the 8 hour lavage) was “no quantifiable”. The solubility [3] was 0.4 µg/mL (≈ 1.3 µM).
